The record followed here is patent publication US20250282768A1 (Janssen Pharmaceutica NV, priority 2022, published 2025).

Structures are written as SMILES.

This experiment relates to p-IKKa levels in L363 (NIK translocated multiple myeloma) cells. As to the kind of experiment: Assay 2: Effect of compounds on p-IKKa levels in L363 (NIK translocated multiple myeloma) cells. The class given is cell-based. The settings on record: Homo sapiens, L-363, 6 h, read-out: Assay 2 IC50 (nM), p-IKKa (Ser 176/180) in BAFF stimulated L363 cells with MG132, 6 h; average if tested more than once. A digest of the protocol: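 Read-out is p-IKKa Ser176/180 by AlphaLISA SureFire in lysates. Cells were BAFF-primed (250 ng/ml) overnight or left unstimulated, then exposed 6 h at 37 °C to compound with MG132 (10 μM), 0.3% DMSO. IC50 from sigmoidal curve fit, normalized between stimulated and unstimulated controls.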
In the case of `CN1CC[C@@](O)(c2cc(-c3cccc(-c4ccnc(Nc5ccn(C)n5)n4)c3F)no2)C1=O` [Example 426, (R)-3-(3-(2-Fluoro-3-(2-((1-methyl-1H-pyrazol-3-yl)amino)pyrimidin-4-yl)phenyl)isoxazol-5-yl)-3-hydroxy-1-methylpyrrolidin-2-one], the IC50 was over 500 nM.

Consider `CN1CC[C@@](O)(c2cc(-c3cccc(-c4ccnc(Nc5cnn(C)c5)n4)c3F)no2)C1=O` [Example 427, (R)-3-(3-(2-Fluoro-3-(2-((1-methyl-1H-pyrazol-4-yl)amino)pyrimidin-4-yl)phenyl)isoxazol-5-yl)-3-hydroxy-1-methylpyrrolidin-2-one], for which the IC50 is over 500 nM.

Regarding `CN(C)Cc1cc(Nc2nccc(-c3cccc(-c4cc([C@]5(O)CCN(C)C5=O)on4)n3)n2)nn1C` [Example 428, (R)-3-(3-(6-(2-((5-((Dimethylamino)methyl)-1-methyl-1H-pyrazol-3-yl)amino)pyrimidin-4-yl)pyridin-2-yl)isoxazol-5-yl)-3-hydroxy-1-methylpyrrolidin-2-one], the IC50 is 50 to 500 nM.

For `CN1CC[C@@](O)(c2cc(-c3cccc(-c4ccnc(Nc5cc6n(n5)CCNC6)n4)n3)no2)C1=O` [Example 430, (R)-3-Hydroxy-1-methyl-3-(3-(6-(2-((4,5,6,7-tetrahydropyrazolo[1,5-a]pyrazin-2-yl)amino)pyrimidin-4-yl)pyridin-2-yl)isoxazol-5-yl)pyrrolidin-2-one], the IC50 fell in the range of 50 to 500 nM.

Regarding `CN1CC[C@@](O)(c2cc(-c3cccc(-c4ccnc(Nc5cc6n(n5)CCN(CC(F)(F)F)C6)n4)n3)no2)C1=O` [Example 431, (R)-3-Hydroxy-1-methyl-3-(3-(6-(2-((5-(2,2,2-trifluoroethyl)-4,5,6,7-tetrahydropyrazolo[1,5-a]pyrazin-2-yl)amino)pyrimidin-4-yl)pyridin-2-yl)isoxazol-5-yl)pyrrolidin-2-one], the IC50 fell in the range of 50 to 500 nM.

Regarding `CN1CC[C@@](O)(c2cc(-c3cccc(-c4ccnc(Nc5cc6n(n5)CCOC6)n4)n3)no2)C1=O` [Example 432, (R)-3-(3-(6-(2-((6,7-Dihydro-4H-pyrazolo[5,1-c][1,4]oxazin-2-yl)amino)pyrimidin-4-yl)pyridin-2-yl)isoxazol-5-yl)-3-hydroxy-1-methylpyrrolidin-2-one], the IC50 is under 50 nM.

As to `CN1CC[C@@](O)(c2cc(-c3cccc(-c4ccnc(Nc5cnn6c5CN(CC5CC5)CC6)n4)n3)no2)C1=O` [Example 433, (R)-3-(3-(6-(2-((5-(Cyclopropylmethyl)-4,5,6,7-tetrahydropyrazolo[1,5-a]pyrazin-3-yl)amino)pyrimidin-4-yl)pyridin-2-yl)isoxazol-5-yl)-3-hydroxy-1-methylpyrrolidin-2-one], the IC50 is under 50 nM.

For the compound `CN1CC[C@@](O)(c2cc(-c3cccc(-c4ccnc(Nc5cc(CN6CCOCC6)n(C)n5)n4)n3)no2)C1=O` [Example 434, (R)-3-Hydroxy-1-methyl-3-(3-(6-(2-((1-methyl-5-(morpholinomethyl)-1H-pyrazol-3-yl)amino)pyrimidin-4-yl)pyridin-2-yl)isoxazol-5-yl)pyrrolidin-2-one], the IC50 fell in the range of 50 to 500 nM.

Regarding `CN1CC[C@@](O)(c2cc(-c3cccc(-c4ccnc(NCCC(F)(F)F)n4)n3)no2)C1=O` [Example 435, (R)-3-Hydroxy-1-methyl-3-(3-(6-(2-((3,3,3-trifluoropropyl)amino)pyrimidin-4-yl)pyridin-2-yl)isoxazol-5-yl)pyrrolidin-2-one], the IC50 fell in the range of 50 to 500 nM.

In the case of `CN1CC[C@@](O)(c2cc(-c3cccc(-c4ccnc(N[C@H]5CCOC5)n4)n3)no2)C1=O` [Example 436, (R)-3-Hydroxy-1-methyl-3-(3-(6-(2-(((S)-tetrahydrofuran-3-yl)amino)pyrimidin-4-yl)pyridin-2-yl)isoxazol-5-yl)pyrrolidin-2-one], the IC50 lay within 50 to 500 nM.

Take `CN1CC[C@@](O)(c2cc(-c3cccc(-c4ccnc(NC5CC(F)(F)C5)n4)n3)no2)C1=O` [Example 439, (R)-3-(3-(6-(2-((3,3-Difluorocyclobutyl)amino)pyrimidin-4-yl)pyridin-2-yl)isoxazol-5-yl)-3-hydroxy-1-methylpyrrolidin-2-one]: the IC50 was in the range of 50 to 500 nM.

For the compound `COC[C@H](C)Nc1nccc(-c2cccc(-c3cc([C@]4(O)CCN(C)C4=O)on3)n2)n1` [Example 440, (R)-3-Hydroxy-3-(3-(6-(2-(((S)-1-methoxypropan-2-yl)amino)pyrimidin-4-yl)pyridin-2-yl)isoxazol-5-yl)-1-methylpyrrolidin-2-one], the IC50 is 50 to 500 nM.

Take `C[C@H](Nc1nccc(-c2cccc(-c3cc([C@]4(O)CCN(C)C4=O)on3)n2)n1)C1CC1` [Example 441, (R)-3-(3-(6-(2-(((S)-1-Cyclopropylethyl)amino)pyrimidin-4-yl)pyridin-2-yl)isoxazol-5-yl)-3-hydroxy-1-methylpyrrolidin-2-one]: the IC50 is over 500 nM.

As for `CN1CC[C@@](O)(c2cc(-c3cccc(-c4ccnc(NC5(C)CC5)n4)n3)no2)C1=O` [Example 442, (R)-3-Hydroxy-1-methyl-3-(3-(6-(2-((1-methylcyclopropyl)amino)pyrimidin-4-yl)pyridin-2-yl)isoxazol-5-yl)pyrrolidin-2-one], the IC50 is 50 to 500 nM.

For the compound `CN1CC[C@@](O)(c2cc(-c3cccc(-c4ccnc(NC5(C6CC6)CC5)n4)n3)no2)C1=O` [Example 443, (R)-3-(3-(6-(2-([1,1′-Bi(cyclopropan)]-1-ylamino)pyrimidin-4-yl)pyridin-2-yl)isoxazol-5-yl)-3-hydroxy-1-methylpyrrolidin-2-one], the IC50 fell in the range of 50 to 500 nM.

As to `CN1CC[C@@](O)(c2cc(-c3cccc(-c4ccnc(Nc5cnn6c5OCC(C)(C)C6)n4)n3)no2)C1=O` [Example 444, (R)-3-(3-(6-(2-((6,6-Dimethyl-6,7-dihydro-5H-pyrazolo[5,1-b][1,3]oxazin-3-yl)amino)pyrimidin-4-yl)pyridin-2-yl)isoxazol-5-yl)-3-hydroxy-1-methylpyrrolidin-2-one], the IC50 is under 50 nM.

In the case of `CN1CC[C@@](O)(c2cc(-c3cccc(-c4ccnc(NC5CC(C(F)(F)F)C5)n4)n3)no2)C1=O` (stereo partly drawn) [Example 445, (R)-3-Hydroxy-1-methyl-3-(3-(6-(2-((3-(trifluoromethyl)cyclobutyl)amino)pyrimidin-4-yl)pyridin-2-yl)isoxazol-5-yl)pyrrolidin-2-one], the IC50 was over 500 nM.

As for `CN1CC[C@@](O)(c2cc(-c3cccc(-c4ccnc(NC5CSC5)n4)n3)no2)C1=O` [Example 446, (R)-3-Hydroxy-1-methyl-3-(3-(6-(2-(thietan-3-ylamino)pyrimidin-4-yl)pyridin-2-yl)isoxaozl-5-yl)pyrrolidin-2-one], the IC50 was in the range of 50 to 500 nM.

Turning to `CN1CC[C@@](O)(c2cc(-c3cccc(-c4ccnc(NC5CCN(S(=O)(=O)C6CC6)CC5)n4)n3)no2)C1=O` [Example 447, (R)-3-(3-(6-(2-((1-(Cyclopropylsulfonyl)piperidin-4-yl)amino)pyrimidin-4-yl)pyridin-2-yl)isoxazol-5-yl)-3-hydroxy-1-methylpyrrolidin-2-one], the IC50 fell in the range of 50 to 500 nM.

Take `CO[C@@H]1CCC[C@H](Nc2nccc(-c3cccc(-c4cc([C@]5(O)CCN(C)C5=O)on4)n3)n2)C1` [Example 449, (R)-3-Hydroxy-3-(3-(6-(2-(((1S,3R)-3-methoxycyclohexyl)amino)pyrimidin-4-yl)pyridin-2-yl)isoxazol-5-yl)-1-methylpyrrolidin-2-one]: the IC50 fell in the range of 50 to 500 nM.
